Assay results taken from US8338380B2, “Use of the peptide RFMWMR as a therapeutic agent” (priority 2007, dated 2012).

Legend:
Interleukin-5 (IL-5) = assay: Th1/Th2 cytokine profiling assay: IL-5; assay type: cell-based; conditions: Ovalbumin-restimulated spleen cells of immunized Balb/c mice; 10 micrograms per ml; 72 hours
Interleukin-2 (IL-2) = assay: Th1/Th2 cytokine profiling assay: IL-2; assay type: cell-based; conditions: Ovalbumin-restimulated spleen cells of immunized Balb/c mice; 10 micrograms per ml; 72 hours
[1] = Cytotoxicity in CEM-SS cells (MTS) of the HIV-1 experiments; conditions: human
Interferon-γ (IFN-γ) = assay: Th1/Th2 cytokine profiling assay: IFN-γ; assay type: cell-based; conditions: Ovalbumin-restimulated spleen cells of immunized Balb/c mice; 10 micrograms per ml; 72 hours
[2] = tested on: hepatitis B virus (HBV) ayw strain; assay: HBV experimental assay system (secreted HBV DNA, TaqMan PCR); assay type: cell-based; conditions: HepG2-2.2.15 cells; peptide 10 micrograms per ml; six days; HBV DNA in supernatant
Procedure: HepG2-2.2.15 is a stable cell line containing the hepatitis B virus (HBV) ayw strain genome (ATCC Cat. No. CRL-11997). Antiviral compounds blocking any late step of viral replication such as transcription, translation, pregenome encapsidation, reverse transcription, particle assembly and release can be identified and characterized using this cell line.
HepG2-2.2.15 cells were plated in 96-well microtiter plates. After 16-24 hours the confluent monolayer of HepG2-2.2.15 cells was washed and the medium was replaced with complete medium containing test peptide—10 micrograms per ml—in duplicate. […] Three days later the culture medium was replaced with fresh medium containing the peptide. Six days following the initial administration of the peptide, the cell culture supernatants was collected, treated with pronase and DNAse and then used in a real-time quantitative TaqMan PCR assay. The PCR-amplified HBV DNA was detected in real-time by monitoring increases in fluorescence signals that result from the exonucleolytic degradation of a quenched fluorescence probe molecule that hybridizes to the amplified HBV DNA. For each PCR amplification, a standard curve was simultaneously generated using dilutions of purified HBV DNA. Antiviral activity was calculated from the reduction in HBV DNA levels (% virus control). […]

A549 cells [3] = assay: Apoptosis induction assay (Annexin-5); assay type: cell-based, Human; conditions: apoptosis in A549 cells, 10 micrograms per ml, 24 hours
Interleukin-4 (IL-4) = assay: Th1/Th2 cytokine profiling assay: IL-4; assay type: cell-based; conditions: Ovalbumin-restimulated spleen cells of immunized Balb/c mice; 10 micrograms per ml; 72 hours
Streptococcus pneumoniae = Streptococcus pneumoniae assay; assay type: cell-based; conditions: peptide 10 micrograms per ml, macroscopic growth, read visually
A549 cells [4] = assay: Apoptosis prevention assay (C2 ceramide, Annexin-5); assay type: cell-based, Human; conditions: A549 cells pretreated 30 min with 10 micrograms per ml, then C2 ceramide
RAW 264.7 cells = assay: Phagocytosis assay (Fluorescein-labeled Escherichia coli); assay type: cell-based, Mouse; conditions: 10 micrograms per ml, 30 min preincubation, 60 min ingestion, flow cytometry
A549 cells [5] = assay: Propidium iodide cell cycle assay; assay type: cell-based, Human; conditions: 10 micrograms per ml, 24 hours, FACS
MRSA = assay: Methicillin resistant Staphylococcus aureus (MRSA) assay; assay type: cell-based; conditions: peptide 10 micrograms per ml, macroscopic growth, read visually
[6] = Cytotoxicity in HepG2-2.2.15 cells (dye uptake assay); assay type: cell-based; conditions: human, peptide 10 micrograms per ml, read-out: % Cell Viability
HIV-1IIIB = assay: HIV-1 antiviral assay (CPE reduction, MTS); assay type: cell-based; conditions: peptide 10 micrograms per ml, 6 days post-infection
[7] = Cytotoxicity in MRC-5 cells (CellTiter 96); conditions: human, MRC-5 cells (embryonal lung fibroblasts)
[8] = tested on: Primary Human endothelial cells (HUVEC); assay: Endothelial cell migration assay; assay type: cell-based; conditions: 10 micrograms per ml, 22 hours
HUVEC = assay: Endothelial tube formation assay; assay type: cell-based, Human; conditions: 10 micrograms per ml, 20 hours, average tubule length
Source text: Positive control was vehicle only.

[9] = tested on: Tumor Necrosis Factor-α (TNF-α); assay: Th1/Th2 cytokine profiling assay: TNF-α; assay type: cell-based; conditions: Ovalbumin-restimulated spleen cells of immunized Balb/c mice; 10 micrograms per ml; 72 hours
HCMV strain AD169 = assay: HCMV plaque reduction assay in MRC-5 cells; conditions: HCMV AD169 in MRC-5 cells; peptide 10 micrograms per ml; 7-10 days
TNF alpha = TNF alpha production assay in LPS-stimulated macrophages (ELISA); assay type: cell-based, human; conditions: PBMC-derived macrophages, 10 micrograms per ml 30 min before lipopolysaccharide 200 ng/ml, overnight
Source text: Not stimulated macrophages served as negative background control.

Pseudomonas aeruginosa = Pseudomonas aeruginosa assay; assay type: cell-based; conditions: peptide 10 micrograms per ml, macroscopic growth, read visually
[10] = tested on: Human Peripheral Blood Mononuclear Cells (PBMC); assay: B cell proliferation assay (SAC plus Interleukin-2, 3H-thymidine); assay type: cell-based; conditions: 10 micrograms per ml, 3 days, 3H-thymidine incorporation
[11] = tested on: Human Peripheral Blood Mononuclear Cells (PBMC); assay: T cell proliferation assay (PHA, 3H-thymidine); assay type: cell-based; conditions: 10 micrograms per ml, 3 days, 3H-thymidine incorporation

Ac-RFMWMR-NH2 [Ac-Arg-Phe-Met-Trp-Met-Arg-NH2]
IL-5 spleen cells; TH2 response (% of control) (Interleukin-5 (IL-5)): 93.8 % of control
IL-2 spleen cells (% of control) (Interleukin-2 (IL-2)): 156.5 % of control
viability at 10 micrograms per ml [1]: 100%
INFγ spleen cells; TH1 response (% of control) (Interferon-γ (IFN-γ)): 218.6 % of control
% inhibition of HBV replication in HEP G2 cells [2]: 46.8%
% of induction (A549 cells [3]): 1.2%
IL-4 spleen cells; TH2 response (% of control) (Interleukin-4 (IL-4)): 156.2 % of control
% inhibition (Streptococcus pneumoniae): 0.0%
% prevention of ceramide induced apoptosis (A549 cells [4]): 0.0%
% of control phagocytosis (RAW 264.7 cells): 105.9%
Cell cycle analysis G0/G1 (A549 cells [5]): 59.2
Cell cycle analysis G2/M (A549 cells [5]): 8.2
Cell cycle analysis S (A549 cells [5]): 32.7
% inhibition (MRSA): 0.0%
viability at 144 h, 10 micrograms per ml [6]: 100%
% CPE reduction in HIV-1 infected CEM-SS cells (HIV-1IIIB): 0.0%
viability at 144 h [7]: 84%
% inhibition of migration [8]: −15%
% inhibition of tube formation (HUVEC): 23%
TNF-a spleen cells; TH1 response (% of control) [9]: 118.8 % of control
% plaque reduction (HCMV strain AD169): 0.0%
% of LPS induction (TNF alpha): 149.8%
% inhibition (Pseudomonas aeruginosa): 0.0%
% of SAC/IL2 induced control [10]: 106.3%
% of PHA induced control [11]: 109.1%
